Experiments:
[1] = test system: Murine Lewis lung carcinoma (LLC) cells; experiment: Murine lung cancer model, tumor volume growth; assay type: in vivo; parameters: dose or concentration left out as unconfirmed; conditions: LLC s.c. in C57BL6 mice; two weeks
Description: Tumor volume was calculated as 0.5×{tumor length (mm)}[…]{tumor width (mm)}^2. The […] was calculated by student t-test.
(§1) Murine Lewis lung carcinoma (LLC) cells, lung adenocarcinoma cells, were obtained from the Tohoku University Cell Resource Center for Biomedical Research and were incubated with DMEM plus 10% fetal bovine serum until cell proliferation was sufficient to perform the experiments. The LLC cells were adjusted to concentrations of 2×10^5 cells/100 μl with phosphate buffer saline (PBS), and were inoculated Six-week-old male C57BL6 mice purchased from Charles River Japan, Inc. (Tokyo, Japan) and Clea Japan, Inc. (Tokyo, Japan) subcutaneously (2×10^5 cells/100 μl/mouse) at the right hypochondrium. Mice were maintained under specific-pathogen-free conditions, and provided with sterile food and water. When transplanted tumors grew to approximately 100 mm^3 in tumor volume, animals were equally divided into four groups (Control group, n=6; C, NO donor group, n=6; N, Chemotherapy group, n=6; CTX, and NO plus chemotherapy group, n=6; N+CTX). Tumor volume was calculated as 0.5×{tumor length (mm)}×{tumor width (mm)}^2. […]

[2] = test system: Colon 26 cells, murine colon cancer cells; experiment: Murine colon cancer model, tumor volume growth; assay type: in vivo; parameters: dose or concentration left out as unconfirmed; conditions: colon 26 s.c. in BALB/c mice; two weeks
Description: Tumor volume was calculated as 0.5×{tumor length (mm)}×{tumor width (mm)}^2. The P value was calculated by student t-test.
as §1, with “Colon 26” for “Murine Lewis lung carcinoma (LLC)”, “murine colon cancer” for “lung adenocarcinoma”, “RPMI 1640” for “DMEM”, “colon 26” for “LLC”, “female BALB/c” for “male C57BL6”, “subcutanously” for “subcutaneously”

`O=[N+]([O-])OCC(CO[N+](=O)[O-])O[N+](=O)[O-]` [NO donor, nitroglycerin] was tested, and the murine tumor volume [1] was “rapid tumor growth” and the murine tumor volume [2] was “rapid tumor growth”.
